Laboratory results published in patent US7230139B2, “Diterpenoid compounds, compositions thereof and their use as anti-cancer or anti-fungal agents” (priority 2004, dated 2007).
Read-outs that look alike come from different tables or passages of the source. One block for each molecule: values may come before it.

What was measured:
[1] = system: C33A human cervical carcinoma; assay: Cell viability, cellular ATP levels (Vialight HS); format: cell-based; conditions: C-33-A
Description: (§1) The following cell lines were used: A549 human non-small cell lung carcinoma; C33A human cervical carcinoma; H1299 human non-small cell lung carcinoma; Hep-3B human hepatocellular carcinoma; MIA-Paca-2 human pancreatic carcinoma; PC-3 human prostatic adenocarcinoma (American Type Culture Collection, Manassas, Va., USA); HMEC normal human mammary epithelial cells; HUVEC normal human umbilical vein endothelial cells; and NHBE normal human bronchial epithelial cells (Cambrex Bio Science, Rockland, Me., USA). […] HMEC, HUVEC and NHBE cell lines were cultured in MEGM, EGM-2 and BEGM media, respectively (Cambrex Bio Science, Rockland, Me., USA). The cell lines were plated in 96-well microtitre plate at a density of 2–4×10^3 cells per well. After 16 hours, the cells were treated with various concentrations of Compound 50a or Compound 50b. Stock solutions of Compound 50a and Compound 50b, respectively, were prepared in dimethyl sulfoxide at a concentration of 5 mM. Serial dilutions were prepared in RPMI, 10% FBS and 2% DMSO and then added to the cells. The total DMSO in the cell cultures was 1%. […] The IC50s were determined using a best-fit sigmoidal dose response curve with variable slope.
(§2) The selected tumor cell lines included C33A human cervical carcinoma and H1299 human non-small cell lung carcinoma (American Type Culture Collection, Manassas, Va., USA). The cell lines were cultured in RPMI 1640 media supplemented with 10% FBS (Hyclone, Logan, Vt., USA), 100 U/mL penicillin, 100 μg/mL streptomycin and 2 mM L-glutamine (Invitrogen, Carlsbad, Calif., USA). The cell lines were plated in 96-well microtitre plate at a density of 2–4×10^3 cells per well. After 16 hours, the cells were treated with various concentrations of compound 66, 67, 68, 69 and 70, respectively. Stock solutions of compounds 66, 67, 68, 69 and 70 were prepared in dimethyl sulfoxide at a concentration of 5 mM. Serial dilutions were prepared in RPMI, 10% FBS and 2% DMSO and then added to the cells. The total DMSO on the cells was 1%. […] The IC50s were determined using a best-fit sigmoidal dose response curve with variable slope.

[2] = system: H1299 human non-small cell lung carcinoma; assay: Cell viability, cellular ATP levels (Vialight HS); format: cell-based
Description: as §1, §2

[3] = system: HMEC normal human mammary epithelial cells; assay: Cell viability, cellular ATP levels (Vialight HS); format: cell-based; conditions: Table 5, breast epithelial, ATP levels 72 h post-treatment
Description: as §1

[4] = system: A549 human non-small cell lung carcinoma; assay: Cell viability, cellular ATP levels (Vialight HS); format: cell-based; conditions: Table 5, A549, NSCL-adrenocarinoma, tumor, ATP levels 72 h post-treatment
Description: as §1

[5] = system: PC-3 human prostatic adenocarcinoma; assay: Cell viability, cellular ATP levels (Vialight HS); format: cell-based; conditions: Table 5, PC-3, prostate, tumor, ATP levels 72 h post-treatment
Description: as §1

[6] = system: Hep-3B human hepatocellular carcinoma; assay: Cell viability, cellular ATP levels (Vialight HS); format: cell-based; conditions: Hep3B, Table 5, liver, tumor, ATP levels 72 h post-treatment
Description: as §1

[7] = system: MIA-Paca-2 human pancreatic carcinoma; assay: Cell viability, cellular ATP levels (Vialight HS); format: cell-based; conditions: Table 5, MIA-Paca-2, pancreas, tumor, ATP levels 72 h post-treatment
Description: as §1

[8] = system: NHBE normal human bronchial epithelial cells; assay: Cell viability, cellular ATP levels (Vialight HS); format: cell-based; conditions: Table 5, ATP levels 72 h post-treatment
Description: as §1

[9] = system: HUVEC normal human umbilical vein endothelial cells; assay: Cell viability, cellular ATP levels (Vialight HS); format: cell-based; conditions: Table 5, ATP levels 72 h post-treatment
Description: as §1

[10] = Body weight of SW480 tumor-bearing mice; format: in vivo, CB17 SCID/SCID female mice; conditions: i.v. once daily for five days; 10 mg/kg (50, 50a, 50b), 50 mg/kg (74a)
Method: (§3) SW480 cells were transplanted subcutaneously into the flank of female CB 17 SCID/SCID mice. Each mouse was inoculated with a suspension of 1×10^6 tumor cells per 100 μL on day zero. The following five treatment groups of ten mice each were used: (a) a negative control group treated with intravenous (i.v.) injection of vehicle, (b) a group treated with i.v. injection of a Compound 50, (c) a group treated with i.v. injection of a Compound 50a, (d) a group treated with i.v. injection of Compound 50b, (e) a group treated with i.v. injection of Compound 74a.
(§4) Treatment started on day twelve after SW480 cells transplantation and Compounds 50, 50a, 50b and 74a were administered i.v. once daily for five consecutive days at a dose of 10, 10, 10 and 50 mg/kg, respectively. Compound 50, 50a and 50b were prepared as a working solution of 1.5 mg/mL in a vehicle solution of 20% Cremaphor EL (Sigma, St. Louis, Miss., USA), and 10% Ethanol. Compound 74a was prepared as a working solution of 5 mg/mL in a vehicle solution of 5% Dextrose (Abbot Laboratories, QC, Canada). The negative control groups were treated with vehicle solution of 20% Cremaphor EL and 10% Ethanol alone.
(§5) The mice were weighed and the tumors measured on day 12 and every 2 to 3 days after treatment commenced. Observations continued for 23 days after initial tumor implantation. The changes in body weight and in the calculated tumor volume were plotted (FIGS. 9 and 10). Statistical analysis was performed using GraphPad Prism (GraphPad Software Inc., San Diego, Calif.). Two-way ANOVA was used to determine how the treatment affected tumor growth over time. Following the two-way ANOVA, post-tests were performed using the Benferroni method to determine the statistical difference between the mean tumor-size of the two groups being compared on every day that the tumors were measured.

[11] = system: SW480 human colon carcinoma cancer cells; assay: SW480 colon carcinoma xenograft in SCID mice; format: in vivo, CB17 SCID/SCID female mice
Method: The resultant mice are a model for a human having colon carcinoma cancer.
The SW480 human colon carcinoma cancer cells were maintained in RPMI supplemented with 10% inactivated fetal bovine serum and 1% penicillin-streptomycin-L-Glutamine, under 5% CO2 at 37° C., and passaged twice a week. The cells were grown at a confluency lower than 70% and then collected with Trypsin (Bio-Whittaker, Md., USA). The cells were then centrifuged and washed twice using phosphate buffered saline solution (PBS) and resuspended in PBS at 1×10^6 cells per 100 μl. Viability was examined by staining with Trypan Blue and only flasks with cell viability of greater than 95% were used for in vivo studies.
as §3, §4, §5

[12] = system: H1299 and C33A cancer cells versus HMEC and MRC-5 normal cells; conditions: 72 h; 1.6 μM Compound 48, 10 μM etoposide, 100 nM staurosporine
Method: H1299 non-small cell lung carcinoma cells, C33A cervical carcinoma cells, Mrc-5 normal lung fibroblasts (American Type Culture Collection, Manassas, Va. USA) and HMEC normal mammary epithelial cells (Clonetics San Diego, Calif., USA) were cultured in RPMI 1640 media supplemented with 10% fetal calf serum (Sigma-Aldrich Inc., St. Louis, Mo. USA). The four cells lines were plated in 96-well microtiter plates (PerkinElmer Life Sciences Inc, Boston, Mass. USA) at a confluency that allowed them to reach confluence after 4 days of growth. One day after plating, the cells were treated either with 10 μM etoposide, 100 nM staurosporine or 1.6 μM of Compound 48. Stock solutions of each compound were prepared in dimethyl sulfoxide (Sigma-Aldrich Inc., St. Louis, Mo. USA), diluted in media then added to the cells. The total dimethyl sulfoxide on the cells was 1%. After 3 days of incubation, the ATP levels in the cells were quantified using the luminescent ViaLight detection system (Bio-Whittaker, Md., USA). The results were plotted relative to untreated control cells, which were set at 100.

[13] = format: in vivo, CB17 SCID/SCID female mice; conditions: day 34; i.p. 3.5 mg/kg once every 3 days for fifteen days
Method: C33A cells were transplanted subcutaneously into the flank of female CB17 SCID/SCID mice. Each mouse was inoculated with a suspension of 2×10^6 tumor cells per 100 μL on day zero. The following six treatment groups of ten mice each were used: (a) a negative control group treated with intravenous (i.v.) injection of vehicle, (b) a negative control group treated with intraperitoneal (i.p.) injection of vehicle, (c) a positive control group treated with i.p. injection of Cisplatin, (d) a group treated with i.v. injection of a Compound 50, (e) a group treated with i.p. injection of Compound 50, and (f) a group treated with subcutaneous (s.c.) injection of Compound 50.
Treatment started on day thirteen after C33A cells transplantation for Compound 50 treated groups and on day fourteen for Cisplatin treated group. Compound 50 was administered i.v., i.p., and s.c. once daily for five consecutive days at a dose of 10, 15 and 30 mg/kg, respectively. Compound 50 was prepared as a working solution of 1.5 mg/mL in a vehicle solution of 20% Cremaphor EL (Sigma, St. Louis, Mo., USA), 10% Ethanol and 5% Dextrose (Abbot Laboratories, QC, Canada). The negative control groups were treated with vehicle alone. The positive control group was treated once every 3 days for fifteen days at a dose of 3.5 mg/kg. Cisplatin was formulated in PBS on each day of the injection and was administered i.p.
as §5, with “13” for “12”, “36” for “23”, “4” for “9”, “5).” for “10).”, “measured. […]” for “measured.”

[14] = Table 8, cellular ATP levels, read-out: IC50 C33A
[15] = NCI-H1299, Table 8, cellular ATP levels, read-out: IC50 H1299
[16] = Table 6, ATP levels 72 h post-treatment vs untreated cells, read-out: IC50 C33A
[17] = NCI-H1299, Table 6, ATP levels 72 h post-treatment vs untreated cells, read-out: IC50 H1299
[18] = Table 7, cellular ATP levels, read-out: IC50 C33A
[19] = NCI-H1299, Table 7, cellular ATP levels, read-out: IC50 H1299

Compound: COc1ccc2c(c1)[C@@]1(C)C=CC(=O)C(C)(C)C1=C(O)C2=O [Compound 50a]
IC50 ([1]; Table 5, C33A, cervix, tumor, ATP levels 72 h post-treatment, read-out: IC50): 500 nM | IC50 ([2]; NCI-H1299, Table 5, H1299, NSCL-LC carcinoma, tumor, ATP levels 72 h post-treatment vs untreated cells, read-out: IC50): 550 nM | IC50 [3]: 2300 nM | IC50 [4]: 630 nM | IC50 [5]: 370 nM | IC50 [6]: 970 nM | IC50 [7]: 660 nM | IC50 [8]: 1200 nM | IC50 [9]: 1700 nM | Change in body weight [10]: non-significant change in body weight | Tumor growth compared to vehicle ([11]; i.v. 10 mg/kg once a day for five days): significant reduction (p<0.001)

Compound: COc1cc([C@@H]2c3cc4c(cc3[C@@H](O[C@@H]3O[C@@H]5CO[C@@H](C)O[C@H]5[C@H](O)[C@H]3O)[C@H]3COC(=O)[C@H]23)OCO4)cc(OC)c1O [etoposide]
Selective cytotoxicity towards cancer cells [12]: selectively cytotoxic towards cancer cells

Compound: N.N.[Cl][Pt][Cl] [Cisplatin, reference compound]
Weight loss [13]: 19%

Compound: CCOP(=O)(OCC)OC1=C2C(C)(C)C(=O)C=CC2(C)c2cc(OC)ccc2C1=O (stereo not drawn) [Compound 72]
IC50 ([1]; read-out: IC50 C33A): 212 nM | IC50 ([2]; NCI-H1299, read-out: IC50 H1299): 997 nM

Compound: COc1ccc2c(c1)C1(C)C=CC(=O)C(C)(C)C1=C(OP(=O)(OCc1ccccc1)OCc1ccccc1)C2=O (stereo not drawn) [Compound 73]
IC50 [1, 18]: 655 nM | IC50 [2, 19]: 1540 nM

Compound: COc1ccc2c(c1)[C@@]1(C)C=CC(=O)C(C)(C)C1=C(OP(=O)(O)O)C2=O [Compound 74a]
Change in body weight [10]: non-significant change in body weight | Tumor growth compared to vehicle ([11]; i.v. 50 mg/kg once daily for five days): significantly reduction (p<0.001)

Compound: COc1cc2c(cc1C)C(=O)C(O)=C1C(C)(C)C(=O)C=CC12C (stereo not drawn) [Compound 48, 10-Hydroxy-6-methoxy-1,1,4a,7-tetramethyl-1H,4aH-phenanthrene-2,9-dione]
Selective cytotoxicity towards cancer cells [12]: selectively cytotoxic towards cancer cells

More lines, now with the values ahead:

IC50 [1, 14]: 216 nM | IC50 [2, 15]: 208 nM
Compound: COc1ccc2c(c1)C1(C)C(=C(O)C2=O)C(C)(C)C(=O)CC1SCC(NC(C)=O)C(=O)O (stereo not drawn) [Compound 80]

IC50 [1, 16]: 15900 nM | IC50 [2, 17]: 16800 nM
Compound: COc1ccc2c(c1)C1(C)C=CC(=O)C(C)(C)C1C(=O)C2=O (stereo not drawn) [Compound 70]

IC50 [1, 16]: 2530 nM | IC50 [2, 17]: 2070 nM
Compound: COc1ccc2c(c1)C1(C)C=CC(=O)C(C)(Cc3ccccc3)C1=C(O)C2=O (stereo not drawn) [Compound 68]

IC50 [1, 16]: 1190 nM | IC50 [2, 17]: 950 nM
Compound: C=CCC1(C)C(=O)C=CC2(C)C1=C(O)C(=O)c1ccc(OC)cc12 (stereo not drawn) [Compound 67]

IC50 [1, 14]: 186 nM | IC50 [2, 15]: 155 nM
Compound: COc1ccc2c(c1)C1(C)C(=C(O)C2=O)C(C)(C)C(=O)CC1SCC(NC(=O)CCC(N)C(=O)O)C(=O)NCC(=O)O (stereo not drawn) [Compound 81]

IC50 [1, 18]: 200 nM | IC50 [2, 19]: 302 nM
Compound: CC1(C)C(=O)C=CC2(C)C1=C(O)C(=O)c1ccc(O)cc12 (stereo not drawn) [Compound 76]

IC50 [1, 16]: 1550 nM | IC50 [2, 17]: 1440 nM
Compound: CCC1(C)C(=O)C=CC2(C)C1=C(O)C(=O)c1ccc(OC)cc12 (stereo not drawn) [Compound 66]

IC50 [1, 16]: 870 nM | IC50 [2, 17]: 1360 nM
Compound: COC(=O)C1=CC2(C)C(=C(O)C(=O)c3ccc(OC)cc32)C(C)(C)C1=O (stereo not drawn) [Compound 69]
